Test results from paper PMC5218887 (Neurochemistry International, 2017).
“Also recorded” adds a separate entry of the source. Non-standard residues stand in square brackets, D forms with d. Primed or numbered codes have the meaning given here. No end group written: not given here. pS′ = not defined here

How the values were obtained:
human GPR139 [1] = biological target: T1, human GPR139 (Homo sapiens, UniProt Q6DWJ6); assay: Fluo-4 Ca2+-assay, agonist testing on CHO-GPR139; format: cell-based; settings: for agonist activity on GPR139: CHO-GPR139, result in words; for relative Emax ± SEM: compared to Emax of cmp1a
T1 sequence (Q6DWJ6 1-353): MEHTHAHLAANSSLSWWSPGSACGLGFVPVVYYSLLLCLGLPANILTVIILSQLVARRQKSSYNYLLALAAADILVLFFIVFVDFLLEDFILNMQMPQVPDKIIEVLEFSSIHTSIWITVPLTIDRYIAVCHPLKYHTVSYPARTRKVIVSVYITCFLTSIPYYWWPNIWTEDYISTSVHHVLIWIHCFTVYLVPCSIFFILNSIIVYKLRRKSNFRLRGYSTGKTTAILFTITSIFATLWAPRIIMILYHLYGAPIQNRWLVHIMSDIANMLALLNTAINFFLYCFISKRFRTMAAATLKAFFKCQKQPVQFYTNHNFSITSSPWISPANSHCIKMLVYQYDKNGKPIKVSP

human GPR139 [2] = biological target: T1, human GPR139; assay: Fluo-4 Ca2+-assay, antagonist testing against EC80; format: cell-based; settings: against EC80 (800 nM) of cmp1a; data not shown
GPR139 [3] = settings: rats; ref Liu et al., 2015; cited from earlier work
GPR139 [4] = settings: read-out: EC50 on GPR139; ref Isberg et al., 2014; cited from earlier work
[5] = biological target: T2, human muscarinic acetylcholine receptor M1 (Homo sapiens, UniProt P11229); assay: Fluo-4 Ca2+-assay on CHO-M1; format: cell-based; settings: CHO-M1, specificity test; data not shown
T2 sequence (P11229 1-460): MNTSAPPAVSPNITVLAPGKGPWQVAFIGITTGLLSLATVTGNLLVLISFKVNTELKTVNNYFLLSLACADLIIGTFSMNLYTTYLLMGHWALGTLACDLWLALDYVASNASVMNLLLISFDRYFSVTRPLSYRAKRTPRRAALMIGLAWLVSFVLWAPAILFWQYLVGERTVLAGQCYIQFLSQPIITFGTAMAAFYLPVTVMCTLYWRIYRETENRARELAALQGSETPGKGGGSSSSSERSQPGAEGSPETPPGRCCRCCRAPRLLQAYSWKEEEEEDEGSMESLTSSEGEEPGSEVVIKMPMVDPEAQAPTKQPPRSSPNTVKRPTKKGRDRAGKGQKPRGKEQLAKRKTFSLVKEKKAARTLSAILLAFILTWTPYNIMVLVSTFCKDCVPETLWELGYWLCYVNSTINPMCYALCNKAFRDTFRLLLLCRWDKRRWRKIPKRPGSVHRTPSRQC

MC4R = MC4R (Homo sapiens, UniProt P32245); assay: cAMP accumulation assay; format: cell-based; settings: tested in the highest concentration; normalized to Emax of α-MSH
Chain of MC4R (P32245 whole entry, species assumed): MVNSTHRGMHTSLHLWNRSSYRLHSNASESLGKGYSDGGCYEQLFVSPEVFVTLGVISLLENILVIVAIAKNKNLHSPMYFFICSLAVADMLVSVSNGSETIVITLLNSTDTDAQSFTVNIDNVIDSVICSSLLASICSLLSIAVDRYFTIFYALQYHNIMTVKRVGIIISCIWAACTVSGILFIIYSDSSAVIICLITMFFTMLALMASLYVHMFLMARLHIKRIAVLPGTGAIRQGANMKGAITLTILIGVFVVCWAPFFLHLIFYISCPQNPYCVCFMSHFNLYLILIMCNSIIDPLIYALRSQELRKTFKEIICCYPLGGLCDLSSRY

In the case of 26RFa, the “agonist activity on GPR139” value (human GPR139 [1]) is reported as “No agonist or antagonist activity” and the “antagonist activity on GPR139” value (human GPR139 [2]) is reported as “No agonist or antagonist activity”.

`N=C(N)NCCC[C@H](NC(=O)[C@H](Cc1ccccc1)NC(=O)[C@@H](N)Cc1c[nH]cn1)C(=O)N[C@@H](Cc1c[nH]c2ccccc12)C(=O)O` [HFRW] gave an Emax (human GPR139 [1]; read-out: relative Emax ± SEM) of 64 ± 6%.

For `C[C@H](NC(=O)CNC(=O)c1cccc(Cl)c1)c1ccccc1` [JNJ-63533054], the spontaneous locomotion activity (GPR139 [3]) is given as “decreased spontaneous locomotion activity”.

For `N[C@@H](Cc1ccccc1)C(=O)O` [L-Phe, L-phenylalanine], the EC50 (GPR139 [4]) is listed as 320 µM.

For `N[C@@H](Cc1c[nH]c2ccccc12)C(=O)O` [L-Trp, L-tryptophan], the EC50 (GPR139 [4]) is given as 220 µM.

With `CSCC[C@H](NC(=O)[C@H](CO)NC(=O)[C@H](Cc1ccc(O)cc1)NC(=O)[C@H](CO)NC(C)=O)C(=O)N[C@@H](CCC(=O)O)C(=O)N[C@@H](Cc1c[nH]cn1)C(=O)N[C@@H](Cc1ccccc1)C(=O)N[C@@H](CCCNC(=N)N)C(=O)N[C@@H](Cc1c[nH]c2ccccc12)C(=O)NCC(N)=O` [cap-α-MSH1-10] the Emax at 14 µM (human GPR139 [1]; read-out: relative Emax ± SEM) was 31 ± 4%.

With `COc1cc(OC)cc(C(=O)NNC(=O)Nc2cccc3ccccc23)c1` [compound 1a, 2-(3,5-dimethoxybenzoyl)-N-(naphthalen-1-yl)hydrazine-1-carboxamide] the “EC80 on GPR139” value (human GPR139 [1]; concentration used for antagonist testing) was 0.8 µM.

For `CSCC[C@H](NC(=O)[C@H](CCCNC(=N)N)NC(=O)[C@H](Cc1ccc(O)cc1)NC(=O)[C@@H]1CCCN1C(=O)CNC(=O)[C@H](CCC(=O)O)NC(=O)[C@H](CC(=O)O)NC(=O)[C@H](CCCCN)NC(=O)[C@H](CCCCN)NC(=O)[C@H](CCC(=O)O)NC(=O)[C@H](C)N)C(=O)N[C@@H](CCC(=O)O)C(=O)N[C@@H](Cc1c[nH]cn1)C(=O)N[C@@H](Cc1ccccc1)C(=O)N[C@@H](CCCNC(=N)N)C(=O)N[C@@H](Cc1c[nH]c2ccccc12)C(=O)NCC(=O)N[C@@H](CO)C(=O)N1CCC[C@H]1C(=O)N1CCC[C@H]1C(=O)N[C@@H](CCCCN)C(=O)N[C@@H](CC(=O)O)C(=O)O` [β-MSH], the “agonist activity on GPR139” value (human GPR139 [1]) was “showed agonist activity”, the “fold more potent on GPR139 than L-Trp and L-Phe” value (human GPR139 [1]; compared with L-Trp (EC50 = 220 μM) and L-Phe (EC50 = 320 μM)) was 20–120 fold and the Emax (human GPR139 [1]; read-out: relative Emax ± SEM) was 101 ± 11%. The “activity on the muscarinic acetylcholine M1 receptor” value [5] was “none of these peptides showed any activity”.

For Ac-SYSMEHFRW-NH2 [cap-α-MSH1-9], the Emax at 61 µM (human GPR139 [1]; read-out: relative Emax ± SEM) was 53 ± 9% and the “response of α-MSH on MC4R” value (MC4R) was 50%.

With MEHFRWG [α-MSH4-10] the “relative Emax ± SEM” value (human GPR139 [1]; at 101 μM (highest concentration tested, no plateau)) was 13 ± 2 (at 101 μM) %.

In the case of “SY[pSer]SMEHFRWGKPV-NH2 (N-terminal SY[pSer]; C-terminal amide) [α-MSHP-Ser]”, the “agonist activity on GPR139” value (human GPR139 [1]) is reported as “neither of the two peptides showed any agonist or antagonist activity” and the “antagonist activity on GPR139” value (human GPR139 [2]) is reported as “neither of the two peptides showed any agonist or antagonist activity”.

For “SY[pSer]SMEHFRWGKPVGKK (SY[pS′]SMEHFRWGKPVGKK) [ACTH1-16,P-Ser]”, the “agonist activity on GPR139” value (human GPR139 [1]) was “neither of the two peptides showed any agonist or antagonist activity” and the “antagonist activity on GPR139” value (human GPR139 [2]) was “neither of the two peptides showed any agonist or antagonist activity”.

With [Arg^8]-vasopressin the “agonist activity on GPR139” value (human GPR139 [1]) was “No agonist or antagonist activity” and the “antagonist activity on GPR139” value (human GPR139 [2]) was “No agonist or antagonist activity”.

In the case of “cap-α-MSH4-10: α-MSH4-10 (MEHFRWG), N-terminal acetylated and C-terminal amidated”, the “relative Emax ± SEM” value (human GPR139 [1]; at 16 μM (highest concentration tested, no plateau)) is reported as 21 ± 8 (at 16 μM) %.

For melanin-concentrating hormone [MCH], the “agonist activity on GPR139” value (human GPR139 [1]) was “No agonist or antagonist activity” and the “antagonist activity on GPR139” value (human GPR139 [2]) was “No agonist or antagonist activity”.

For oxytocin, the “agonist activity on GPR139” value (human GPR139 [1]) was “No agonist or antagonist activity” and the “antagonist activity on GPR139” value (human GPR139 [2]) was “No agonist or antagonist activity”.

With thyrotropin releasing hormone [TRH] the “agonist activity on GPR139” value (human GPR139 [1]) was “No agonist or antagonist activity” and the “antagonist activity on GPR139” value (human GPR139 [2]) was “No agonist or antagonist activity”.

In the case of “γ1-melanocyte stimulating hormone [γ1-MSH]”, the “agonist activity on GPR139” value (human GPR139 [1]) is reported as “No agonist or antagonist activity; also recorded: did not show any activity” and the “antagonist activity on GPR139” value (human GPR139 [2]) is reported as “No agonist or antagonist activity”.
